Test results reported in patent US6841561B1, “Dihydroorotate dehydrogenase inhibitors for the treatment of viral-mediated diseases” (priority 1999, dated 2005).
pEC50: −log10 of the molar value. Where “and” joins values, the source holds several entries; their conditions need not be identical. Identical values can stand only once. Like-named read-outs stand apart in the source and are kept apart here.

Columns and labels:
kunjin virus [1] = test: microbe, parasite or virus in culture; format: cell-based; conditions: West Nile virus
yellow fever virus [2] = test: microbe, parasite or virus in culture
[3] = tested on: vesicular stomatitis virus; test: microbe, parasite or virus in culture
dengue virus [4] = test: microbe, parasite or virus in culture; format: cell-based; conditions: Vero
yellow fever virus [5] = format: cell-based
kunjin virus [6] = format: cell-based
hepatitis C = conditions: patients with chronic hepatitis C; in combination with interferon; cited from earlier work
yellow fever virus [7] = test: in vitro
[8] = tested on: respiratory syncytial virus; test: microbe, parasite or virus in culture; format: cell-based; conditions: human respiratory syncytial virus, Vero, read-out: ED50 RSV VERO
dengue virus [9] = format: cell-based
VSV = format: cell-based, vesicular stomatitis virus
[10] = tested on: vesicular stomatitis virus; test: in vitro; conditions: human

Compound | pEC50 (kunjin virus [1]; Huh-7, read-out: ED50) | pEC50 (yellow fever virus [2]; Huh-7, read-out: ED50) | pEC50 (yellow fever virus [2]; Vero, read-out: ED50) | pEC50 ([3]; Huh-7, read-out: ED50) | pEC50 (dengue virus [4]; read-out: ED50 DEN VERO) | pEC50 (yellow fever virus [2]; Vero, read-out: ED50 YFV VERO) | pEC50 (kunjin virus [1]; Huh-7, read-out: ED50 KUN HuH7) | pEC50 (yellow fever virus [2]; Huh-7, read-out: ED50 YFV HuH7) | pEC50 (kunjin virus [1]; Vero, read-out: ED50) | pEC50 (dengue virus [4]; read-out: ED50) | further results
O=C1C(O)=C(CC=C(Cl)Cl)C(=O)c2ccccc21 [Dichloroallyl lawsone, dichloroallyl lawsone] | 6.11 | 5.96 | 6.05 | 6.31 |  |  |  |  |  |  | 
COc1c(-c2cc(C(=O)O)c3cc(OC(F)(F)F)ccc3n2)ccc(OCc2ccccc2)c1C [I2K51, 2-(4-benzyloxy-2-methoxy-3-methyl-phenyl)-6-trifluoromethoxy-quinoline-4-carboxylic acid] |  |  |  |  | 5.59 | 5.89 |  |  |  |  | 
O=C(O)c1cc(-c2ccc(-c3ccccc3)cc2)nc2ccc(OC(F)(F)F)cc12 [I2K5, 2-(4-biphenylyl)-6-trifluoromethoxy-quinoline-4-carboxylic acid] |  |  |  |  | 6.10 | 6.10 | 5.70 | 5.77 |  |  | Fold enhancement (yellow fever virus [5]): 3 fold
COc1cc(-c2ccc(Nc3ccccc3C(=O)O)c(OC)c2)ccc1Nc1ccccc1C(=O)O [Redoxal] | 6.28 | 6.20 | 6.60 | 6.20 |  |  |  |  | 6.41 | 6.41 | 
O=C(O)c1cc(-c2ccc(Oc3ccccc3)cc2)nc2ccc(OC(F)(F)F)cc12 [I2K52, 2-(4-phenoxyphenyl)-6-trifluoromethoxy-quinoline-4-carboxylic acid] |  |  |  |  |  |  | 5.02 | 4.95 |  |  | 
Cc1nc2c(n1-c1ccc(Br)cc1)C(=O)c1ccccc1C2=O [BNID, 1-(p-bromophenyl)-2-methyl-1H-naphth[2,3-d]imidazole-4,9-dione] | 5.94 | 5.94 | 5.90 | 6.19 |  |  |  |  | 5.98 | 5.90 | Fold enhancement (yellow fever virus [5]): 10 fold and 5 fold; Fold enhancement (kunjin virus [6]): 6 fold
NC(=O)c1ncn([C@@H]2O[C@H](CO)[C@@H](O)[C@H]2O)n1 [Ribavirin] | 4.22 | 4.47 | 3.69 | 3.60 |  |  |  |  | 3.51 | 3.49 | combined treatment efficacy (hepatitis C): up to 40%; selectivity ratio (yellow fever virus [7]; human): 70; selectivity ratio (yellow fever virus [7]; monkey): 36; pEC50 ([3]; MRC5, read-out: ED50): 3.92
Cc1c(-c2ccc(-c3ccccc3F)cc2)nc2ccc(F)cc2c1C(=O)[O-].[Na+] [Brequinar, 6-fluoro-2-(2′-fluoro-1,1′-biphenyl-4-yl)-3-methyl-4′-quinolinecarboxylic acid sodium salt] | 7.52 | 7.30 | 7.70 | 7.85 | 7.40 | 7.70 | 7.40 | 7.52 | 7.70 | 7.70 | pEC50 [8]: 7.70; Fold enhancement (dengue virus [9]): 10 fold; Fold enhancement (kunjin virus [6]): 4.5 fold; Fold enhancement (VSV): 266 fold; selectivity ratio (yellow fever virus [7]; human): 60; selectivity ratio (yellow fever virus [7]; monkey): 2670; selectivity ratio [10]: 2100; pEC50 ([3]; Huh-7, read-out: ED50 VSV HuH7): 7.10
O=C(O)c1cc(-c2ccc(C3CCCCC3)cc2)nc2ccc(OC(F)(F)F)cc12 [I2K46, 2-(4-cyclohexylphenyl)-6-trifluoromethoxy-quinoline-4-carboxylic acid] |  |  |  |  |  |  | 5.20 | 5.29 |  |  | 
Cc1c(-c2ccc(-c3ccccc3)cc2)nc2ccc(OC(F)(F)F)cc2c1C(=O)O [I2K55, 2-(4-biphenylyl)-3-methyl-6-trifluoromethoxy-quinoline-4-carboxylic acid] |  |  |  |  | 4.93 | 4.93 | 5.24 | 5.21 |  |  | 
